Earlier results on eight compounds are cited in patent US12491200B2, “Compositions and methods using cannabinoids for treating stammering/stuttering and symptoms of Tourette syndrome” (priority 2019, dated 2025).

One series has as its system Tourette syndrome. Particulars: patients aged between 16 and 19; very high doses.
As to `CCCCCc1cc(O)c2c(c1)OC(C)(C)[C@@H]1CCC(C)=C[C@@H]21` [synthetic THC, delta-9-tetrahydrocannabinol], the “symptoms such as vocal blocking tics and comorbid conditions” value is listed as “significant improvement”.

The next series has as its system developmental stuttering.
Settings: not given
Take `O=C(CCCN1CCC(O)(c2ccc(Cl)cc2)CC1)c1ccc(F)cc1` [haloperidol]: the speech fluency entry is “improve speech fluency”.
Take `N[C@@H](Cc1ccc(O)c(O)c1)C(=O)O` [levodopa]: the speech fluency result is “worsening speech fluency”.
Regarding `Cc1nc2n(c(=O)c1CCN1CCC(c3noc4cc(F)ccc34)CC1)CCCC2` [risperidone], the speech fluency entry is listed as “improve speech fluency”.

The next series concerns tic disorders. Particulars: compared with placebo.
On to `O=C1CCc2ccc(OCCCCN3CCN(c4cccc(Cl)c4Cl)CC3)cc2N1` [aripiprazole], for which the tic symptom score entry was “significantly improve tic symptom score”.
For the compound `O=C(CCCN1CCC(O)(c2ccc(Cl)cc2)CC1)c1ccc(F)cc1` [haloperidol], the tic symptom score result is “significantly improve tic symptom score”.
For `OCCOCCN1CCN(C2=Nc3ccccc3Sc3ccccc32)CC1` [quetiapine], the tic symptom score entry was “significantly improve tic symptom score”.
Take `Cc1nc2n(c(=O)c1CCN1CCC(c3noc4cc(F)ccc34)CC1)CCCC2` [risperidone]: the tic symptom score result is “significantly improve tic symptom score”.
`O=C1Cc2cc(CCN3CCN(c4nsc5ccccc45)CC3)c(Cl)cc2N1` [ziprasidone]: the tic symptom score entry was “significantly improve tic symptom score”.

The series is the same for the next values; noted with them: tic disorders.
For the compound `O=C1CCc2ccc(OCCCCN3CCN(c4cccc(Cl)c4Cl)CC3)cc2N1` [aripiprazole], the “most common adverse events” value was “dizziness, nausea, and dry mouth”.
Regarding `O=C(CCCN1CCC(O)(c2ccc(Cl)cc2)CC1)c1ccc(F)cc1` [haloperidol], the “most common adverse events” value was “drowsiness, extrapyramidal reactions, and dry mouth”.
Turning to `Cc1nc2n(c(=O)c1CCN1CCC(c3noc4cc(F)ccc34)CC1)CCCC2` [risperidone], the “most common adverse events” value is “drowsiness and appetite”.
On to `CCN(CC)CCNC(=O)c1cc(S(C)(=O)=O)ccc1OC` [tiapride], for which the “most common adverse events” value was “dizziness, nausea, and dry mouth”.
